Here are results for one compound from patent US10251894B2, “Anticonvulsant activity of steroids” (The Regents of the University of California, priority 2012, dated 2019).

Series [1] concerns PTZ (80 mg/kg, i.p.) seizures. The series is described as follows: Pentylenetetrazol (PTZ) seizure test. It counts as in vivo, mouse. Conditions: mice. The method, then: (§1) The mouse 6 Hz and pentylenetetrazol seizure models were used. Solutions of 5α,3α-P were made in 6% (0.5 and 1.5 mg/ml) sulfobutylether-β-cyclodextrin sodium salt (Captisol®) in 0.9% saline. The solutions were injected i.v. or i.m. (1, 2 and 30 min or 2 and 30 min, respectively) prior to administration of the 6 Hz electrical stimulus or PTZ (80 mg/kg, i.p.). […] Anticonvulsant activity was assessed by the delay in onset of seizure signs. Allopregnanolone plasma levels in rats were determined by LC-MS.
(§2) Animals. Male NIH Swiss mice (22-30 g) served as subjects, and all procedures used in these studies were conducted in accordance with the University of California, Davis, Institutional Animal Care and Use Committee the Animal Care and Use policies in strict compliance with the Guide for the Care and Use of Laboratory Animals of the National Research Council (National Academy Press, Washington, D.C.; on the internet at nap.edu/readingroom/books/labrats/).
(§3) Test Substances and Drug Administration. Allopregnanolone (3α-hydroxy-5α-pregnan-20-one; 5α,3α-P) was synthesized by a SAFC Pharma Inc, Madison, Wis., USA and Captisol (sulfobutylether-beta-cyclodextrin sodium salt) was provided by Ligand Pharmaceuticals, Inc. La Jolla, Calif., USA. Solutions of 5α,3α-P were made in 6% (0.5 and 1.5 mg/ml) or 24% ([…]) sulfobutylether-β-cyclodextrin sodium salt (Captisol®) in 0.9% saline. The volumes used for all injections were 10-20 ml/kg of body weight. In order to establish time courses for protection by 5α,3α-P in the 6-Hz electrical-stimulation (32 mA, 3 s) model, 5α,3α-P (0.5-6 mg/kg) was administered intravenously (i.v.), intramuscularly (i.m.), subcutaneously (s.c.) or orally (p.o.) before electrical stimulation. In the PTZ seizure test, 5α,3α-P or vehicle were administered i.v. or i.m. 1, 2 or 30 min before PTZ.
The time of onset of myoclonic jerks, clonus and tonic extension was recorded.
Data Analysis. Results are expressed as mean±S.E.M.; the significance of the difference in the responses of treatment groups with respect to control is based on one-way analysis of variance (ANOVA) followed by specific post hoc comparisons using Dunnett's test. Differences were considered statistically significant when the probability of error was less than 0.05 (p<0.05).

In series [2] the test system is 6 Hz electrical stimulus seizures. The series is described as follows: 6-Hz seizure test (6-Hz electrical-stimulation, 32 mA, 3 s, model). Conditions: mice. It counts as in vivo, mouse. The method, then: as §1, §2, §3
6-Hz Seizure Test (Kaminski, et al., Epilepsia (2004) 45:1-4): 3-s corneal stimulation (200-μs duration, 32-mA monopolar rectangular pulses at 6 Hz) was delivered by a constant-current device (ECT Unit 5780; Ugo Basile, Comerio, Italy). […] The experimental end point was protection against the seizure: an animal was considered to be protected if it resumed its normal exploratory behavior within 10 s of stimulation.

A short description of series [3]: Plasma allopregnanolone after single i.v. injection (LC-MS). It is filed as in vivo, rat. Particulars: rats. The protocol: FIG. 10 illustrates a Time—concentration profile for plasma allopregnanolone (5α,3α-P) after single i.v. injection in rats. Rats bearing indwelling jugular catheters received single i.v. injection of 5α,3α-P or vehicle and serial blood samples were withdrawn at 1, 2, 10,15, 30, 60 and 120 min after injection. Plasma was assayed for 5α,3α-P by LC-MS. Each point represents at least 4 animals.
as §1
Surgery and Blood Collection. Male rats were implanted with indwelling jugular catheters as described (Baumann, et al., J Neurosci. (1998) 18: 9069-77). Animals were allowed to recover for at least one week. Experiments were carried out while the animal resided in its home cage. Rats received i.v. injection of vehicle or 5α,3α-P and serial blood samples were withdrawn into chilled tubes at 1, 2, 10,15, 30, 60 and 120 min after i.v. injection. 5α,3α-P and D4-5α,3α-P (internal standard) were extracted with SPE method from rat's plasma. The extracted 5α,3α-P and D4-5α,3α-P were quantified with ultra-performance liquid chromatography (UPLC)/Atmospheric-pressure chemical ionization (APCI)/tandem mass spectrometry (MS/MS).

Setting [4] is: 0.5 mg/kg i.v. 1 min before PTZ.
Where [5] appears, read: i.v. bolus, 0.5 and 1.0 mg/kg pooled.

A value given as a limit tells only on which side of the number the result lay.

In the case of `CC(=O)[C@H]1CC[C@H]2[C@@H]3CC[C@H]4C[C@H](O)CC[C@]4(C)[C@H]3CC[C@]12C` [5α,3α-P, 3α-hydroxy-5α-pregnan-20-one], the “delay of seizure onset in the PTZ model” value in series [1] (0.1 mg/kg i.v., all pretreatment times (1, 2 and 30 min)) is listed as “failed to significantly delay seizure onset”. Moreover, the “animals protected from tonic seizures” value is 0% in series [1] (0.25 mg/kg i.m. 2 min before PTZ), 50% in series [1] (0.5 mg/kg i.m. 2 min before PTZ) and 100% in series [1] (1.5 mg/kg i.m. 2 min before PTZ). Moreover, the “animals in which tonic seizures and mortality were prevented” value in series [1] (setting [4]) is on record as 62.5%. The “delay for myoclonic jerks and clonic seizures” value in series [1] (setting [4]) is reported as “marked delay”. For the same compound, the “animals in which tonic seizures were prevented” value in series [1] (0.5 mg/kg i.v. 2 min before PTZ) stood at 25%. In addition, the “protection against tonic seizures” value was “significant protection” in series [1] (1.5 mg/kg i.m. 30 min before PTZ) and “inactive” in series [1] (1.5 mg/kg i.v. 30 min before PTZ). Also, the “prevention of tonic seizures and mortality” value in series [1] (1.5 mg/kg i.v. 1 and 2 min before PTZ) was “completely prevented”. In addition, the “duration of protective activity in the 6 Hz test” value in series [2] (i.m. 3 mg/kg) is listed as less than 2 h. Also, in series [2] (i.m. 3 mg/kg), the “onset of protective activity in the 6 Hz test” value is on record as no more than 2 min. In addition, the “protective activity in the 6 Hz test at 30 min” value in series [2] (i.v. 1.5 mg/kg, 30 min after infusion) is “inactive”. Moreover, in series [2] (i.v. infusion 1.5 mg/kg), the “time after injection with protective activity in the 6 Hz test” value is 1 to 15 min. In series [2] (p.o. in the 6-Hz model, inferred from time course), the “bioavailability after oral administration” value is reported as “Low bioavailability”. Moreover, the “mean peak plasma level (2 min)” value amounted to 337 ng/mL in series [3] (i.v. bolus 0.5 mg/kg) and 746 ng/mL in series [3] (i.v. bolus 1.0 mg/kg). In series [3] (setting [5]), the “pooled mean halftime, first component” value is reported as 2 min. For the same compound, in series [3] (setting [5]), the “pooled mean halftime, second component” value worked out at 22 min.
